Measurements reported in publication PMC6759397 (Journal of pharmaceutical sciences, 2019).
Like-named read-outs stand apart in the source and are kept apart here.

What was measured:
OATP1B1 [1] = target: T1, OATP1B1 (Homo sapiens, UniProt Q9Y6L6); settings: read-out: reported Km for OATP1B1; HEK293 cells; cited from earlier work
T1 sequence (Q9Y6L6 1-691): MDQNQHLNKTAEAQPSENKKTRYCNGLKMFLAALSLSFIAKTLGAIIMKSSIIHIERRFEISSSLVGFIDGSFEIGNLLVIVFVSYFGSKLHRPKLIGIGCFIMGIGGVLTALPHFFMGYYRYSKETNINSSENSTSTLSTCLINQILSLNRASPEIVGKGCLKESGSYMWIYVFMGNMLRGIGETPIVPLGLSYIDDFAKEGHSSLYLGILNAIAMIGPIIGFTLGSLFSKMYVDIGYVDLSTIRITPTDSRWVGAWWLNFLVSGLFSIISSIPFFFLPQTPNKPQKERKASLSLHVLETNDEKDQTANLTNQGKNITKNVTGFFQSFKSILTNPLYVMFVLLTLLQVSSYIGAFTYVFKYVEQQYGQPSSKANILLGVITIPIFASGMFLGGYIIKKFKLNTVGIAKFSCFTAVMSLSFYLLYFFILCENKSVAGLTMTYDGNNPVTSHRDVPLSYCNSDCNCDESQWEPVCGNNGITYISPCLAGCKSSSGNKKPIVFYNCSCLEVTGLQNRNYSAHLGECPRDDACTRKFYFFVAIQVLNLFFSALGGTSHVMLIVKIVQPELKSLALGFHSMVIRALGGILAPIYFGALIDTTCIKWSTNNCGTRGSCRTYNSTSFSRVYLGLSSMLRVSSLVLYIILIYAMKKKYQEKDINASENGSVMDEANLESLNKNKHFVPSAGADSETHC

OATP1B1 [2] = target: T1, OATP1B1; settings: substrate E1S; without pre-incubation; cited from earlier work
mTOR C1 = assay: Immunoblot of phosphorylated p70S6K; format: cell-based, human; settings: 1 h pre-incubation: EVR 0.2 µM, SIR 0.5 µM, INK-128 10 µM; vs vehicle control
OATP1B3 [3] = target: T2, OATP1B3 (Homo sapiens, UniProt Q9NPD5); assay: Inhibition of OATP1B3-mediated [3H]-CCK-8 transport in HEK293-OATP1B3 cells; format: cell-based; settings: washing; for OATP1B3-mediated transport ([3H]-CCK-8 accumulation): 1 h pre-incubation alone: EVR 0.2 µM, SIR 0.5 µM, INK-128 10 µM; for OATP1B3-mediated [3H]CCK-8 accumulation: 1 h pre-incubation with EVR 0.2 µM
T2 sequence (Q9NPD5 1-702): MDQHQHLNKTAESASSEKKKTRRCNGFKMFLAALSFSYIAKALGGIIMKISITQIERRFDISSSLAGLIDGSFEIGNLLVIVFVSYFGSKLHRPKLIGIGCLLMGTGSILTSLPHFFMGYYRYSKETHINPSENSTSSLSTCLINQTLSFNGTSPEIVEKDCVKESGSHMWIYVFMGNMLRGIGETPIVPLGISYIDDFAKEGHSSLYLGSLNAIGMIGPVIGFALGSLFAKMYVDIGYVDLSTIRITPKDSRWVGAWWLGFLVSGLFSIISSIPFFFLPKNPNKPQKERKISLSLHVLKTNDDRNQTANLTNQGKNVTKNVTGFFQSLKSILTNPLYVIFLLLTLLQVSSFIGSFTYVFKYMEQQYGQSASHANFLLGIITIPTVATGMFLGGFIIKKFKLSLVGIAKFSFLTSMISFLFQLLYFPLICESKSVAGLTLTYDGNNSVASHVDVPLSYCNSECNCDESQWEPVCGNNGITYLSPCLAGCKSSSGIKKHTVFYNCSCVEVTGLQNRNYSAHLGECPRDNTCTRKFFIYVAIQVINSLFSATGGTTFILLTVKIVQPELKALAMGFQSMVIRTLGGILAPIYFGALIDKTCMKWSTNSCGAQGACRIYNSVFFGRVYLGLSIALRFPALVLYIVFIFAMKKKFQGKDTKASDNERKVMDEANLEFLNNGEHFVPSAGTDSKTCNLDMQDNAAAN

[4] = cited from earlier work
CYP3A5 = settings: cited from earlier work
CYP3A4 = settings: cited from earlier work
OATP1A2 = settings: cited from earlier work
HEK293-OATP1B1 = assay: LDH assay; format: cell-based, human; settings: 1 h pre-incubation, EVR 0.001–10 µM, SIR 0.01–5 µM
OATP1B1 [5] = target: T1, OATP1B1; assay: Transport kinetics of OATP1B1-mediated E217βG transport in HEK293 cells; format: cell-based; settings: co-incubation with 5 µM inhibitor, without pre-incubation
OATP1B1 [6] = target: T1, OATP1B1; settings: for OATP1B1-mediated transport ([3H]-E217βG accumulation): 1 h pre-incubation alone: EVR 0.2 µM, SIR 0.5 µM, INK-128 10 µM; for OATP1B1-mediated transport of [3H]-E1S after pre-incubation / OATP1B1-mediated transport of [3H]-rosuvastatin after pre-incubation: 1 h pre-incubation, EVR 0.1 or 0.2–10 µM, SIR 0.1–5 µM, 0.5 min, concentration-dependent, p<0.001; for OATP1B1-mediated transport of [3H]-E1S after pre-incubation: E1S 25 nM; for OATP1B1-mediated transport of [3H]-rosuvastatin after pre-incubation: rosuvastatin 20 nM
mTOR C2 = assay: Immunoblot of phosphorylated AKT; format: cell-based, human; settings: 1 h pre-incubation: EVR 0.2 µM, SIR 0.5 µM, INK-128 10 µM; vs vehicle control
[7] = human erythrocytes, blood concentration range 5–100 ng/ml; cited from earlier work
OATP1B1 [8] = target: T1, OATP1B1; assay: Static R-value model for OATP1B1-mediated DDI
HEK293-OATP1B3 = settings: 1 h pre-incubation, EVR 0.001–10 µM, SIR 0.01–5 µM
[9] = cited from earlier work; remark: listed apart in the source
P-gp = settings: Caco-2 monolayers; cited from earlier work
OATP1B3 [10] = target: T2, OATP1B3; settings: cited from earlier work
[11] = IC50, [3H]-E1S (25 nM, 0.5 min), co-incubation
[12] = IC50, [3H]-E1S (25 nM, 0.5 min), pre+co-incubation (1 h pre-incubation)
[13] = IC50, [3H]-E217βG (1 µM, 2 min), co-incubation
[14] = IC50, [3H]-E217βG (1 µM, 2 min), pre+co-incubation (1 h pre-incubation)
[15] = IC50, [3H]-rosuvastatin (20 nM, 0.5 min), co-incubation
[16] = IC50, [3H]-rosuvastatin (20 nM, 0.5 min), pre+co-incubation (1 h pre-incubation)
[17] = from co-incubation IC50, rosuvastatin
[18] = from pre+co-incubation IC50, E217βG
[19] = from pre+co-incubation IC50, rosuvastatin

Compound | OATP1B3-mediated transport ([3H]-CCK-8 accumulation) (OATP1B3 [3]) | effect on Vmax of OATP1B1 (OATP1B1 [5]) | increase of Km of OATP1B1 (OATP1B1 [5]) | OATP1B1-mediated transport ([3H]-E217βG accumulation) (OATP1B1 [6]; washing) | OATP1B1-mediated transport of [3H]-E1S after pre-incubation (OATP1B1 [6]) | OATP1B1-mediated transport of [3H]-rosuvastatin after pre-incubation (OATP1B1 [6]) | IC50 (OATP1B1 [6]; [11]) | IC50 (OATP1B1 [6]; [12]) | IC50 (OATP1B1 [6]; [13]) | IC50 (OATP1B1 [6]; [14]) | IC50 (OATP1B1 [6]; [15]) | IC50 (OATP1B1 [6]; [16]) | R (OATP1B1 [8]; [17]) | R (OATP1B1 [8]; [18]) | Km (OATP1B1 [1]) | IC50 (OATP1B1 [2]) | amount of phosphorylated p70S6K at T389 (mTOR C1) | inhibition of OATP1A2 (OATP1A2) | toxicity (LDH assay) (HEK293-OATP1B1) | phosphorylation of AKT at S473 (mTOR C2) | further results
C[C@]12CC[C@@H]3c4ccc(OS(=O)(=O)O)cc4CC[C@H]3[C@@H]1CCC2=O [E1S, estrone-3-sulfate] | – | – | – | – | – | – | – | – | – | – | – | – | – | – | 0.46 µM | – | – | – | – | – | –
C[C@]12CC[C@@H]3c4ccc(O)cc4CC[C@H]3[C@@H]1CC[C@@H]2O[C@@H]1O[C@H](C(=O)O)[C@@H](O)[C@H](O)[C@H]1O [E217βG, estradiol 17 β-D-glucuronide] | – | – | – | – | – | – | – | – | – | – | – | – | – | – | 8.29 µM | – | – | – | – | – | –
cholecystokinin 8 [CCK-8] | – | – | – | – | – | – | – | – | – | – | – | – | – | – | – | – | – | – | – | – | Km (OATP1B3 [10]): 3.8 µM

Continued, in another order:

OATP1B3-mediated transport ([3H]-CCK-8 accumulation) (OATP1B3 [3]) | effect on Vmax of OATP1B1 (OATP1B1 [5]) | increase of Km of OATP1B1 (OATP1B1 [5]) | OATP1B1-mediated transport ([3H]-E217βG accumulation) (OATP1B1 [6]; washing) | OATP1B1-mediated transport of [3H]-E1S after pre-incubation (OATP1B1 [6]) | OATP1B1-mediated transport of [3H]-rosuvastatin after pre-incubation (OATP1B1 [6]) | IC50 (OATP1B1 [6]; [11]) | IC50 (OATP1B1 [6]; [12]) | IC50 (OATP1B1 [6]; [13]) | IC50 (OATP1B1 [6]; [14]) | IC50 (OATP1B1 [6]; [15]) | IC50 (OATP1B1 [6]; [16]) | R (OATP1B1 [8]; [17]) | R (OATP1B1 [8]; [18]) | Compound | Km (OATP1B1 [1]) | IC50 (OATP1B1 [2]) | amount of phosphorylated p70S6K at T389 (mTOR C1) | inhibition of OATP1A2 (OATP1A2) | toxicity (LDH assay) (HEK293-OATP1B1) | phosphorylation of AKT at S473 (mTOR C2) | further results
0.60 ± 0.03 fold of control | 1.2–1.7 fold vs. CTL | 6–10 fold | 0.67 ± 0.02 fold of control | significantly decreased | significantly decreased | 610 ± 80 nM | 160 ± 20 nM | 480 ± 70 nM | 230 ± 60 nM | 1580 ± 920 nM | 190 ± 70 nM | 1.03 (1.02–1.09) | 1.19 (1.16–1.26) | CO[C@H]1C[C@@H]2CC[C@@H](C)[C@@](O)(O2)C(=O)C(=O)N2CCCC[C@H]2C(=O)O[C@H]([C@H](C)C[C@@H]2CC[C@@H](OCCO)[C@H](OC)C2)CC(=O)[C@H](C)/C=C(\C)[C@@H](O)[C@@H](OC)C(=O)[C@H](C)C[C@H](C)/C=C/C=C/C=C/1C [EVR, everolimus] | – | 4100 ± 1100 nM | markedly reduced | inhibit | negligible toxicity | did not inhibit | OATP1B3-mediated [3H]CCK-8 accumulation (OATP1B3 [3]; 4 h in EVR-free medium): 0.76 ± 0.04 fold of CTL; OATP1B3-mediated [3H]CCK-8 accumulation (OATP1B3 [3]; 6 h in EVR-free medium): 0.73 ± 0.04 fold of CTL; OATP1B3-mediated [3H]CCK-8 accumulation (OATP1B3 [3]; 22 h in EVR-free medium): 0.81 ± 0.06 fold of CTL; OATP1B3-mediated transport of [3H]CCK-8 (OATP1B3 [3]; after 1 h pre-incubation with EVR 0.2 µM): 0.76 ± 0.05 fold of control; Compound type [4]: Neutral; Ki (CYP3A5; CYP3A5): 90 nM; fu,mic (CYP3A5): 0.14; Ki (CYP3A4; CYP3A4): 90 nM; fu,mic (CYP3A4): 0.14; Ki (OATP1B1 [6]): 22 nM; OATP1B1-mediated rosuvastatin accumulation (OATP1B1 [6]; 1 h pre-incubation with EVR 0.2 µM, washing, 4 h in fresh EVR-free medium): 0.87 ± 0.03 fold of CTL; OATP1B1-mediated transport of [3H]rosuvastatin (OATP1B1 [6]; after 1 h pre-incubation with EVR 0.2 µM, washing): 0.54 ± 0.07 fold of control; erythrocyte binding [7]: approximately 85%; R (OATP1B1 [8]; [19]): 1.23 (1.10–1.42); toxicity (LDH assay) (HEK293-OATP1B3): negligible toxicity; Vss [9]: 1.55 (CV 36.0%) L/kg; steady-state AUC vs single dose AUC [9]: approximately 1.5 fold higher; time to steady state ([9]; multiple doses, 10 mg daily): around 7 days; basolateral-to-apical vs apical-to-basolateral transport (P-gp): ~ 20 fold
did not significantly affect | – | – | did not significantly affect | – | – | – | – | – | – | – | – | – | – | CC(C)n1nc(-c2ccc3oc(N)nc3c2)c2c(N)ncnc21 [INK-128] | – | – | markedly reduced | – | – | markedly reduced | –
0.49 ± 0.03 fold of control | 1.2–1.7 fold vs. CTL | 6–10 fold | 0.60 ± 0.05 fold of control | significantly decreased | significantly decreased | 830 ± 100 nM | 650 ± 120 nM | 640 ± 160 nM | 220 ± 40 nM | 560 ± 300 nM | 320 ± 110 nM | 1.00 (1.00–1.03) | 1.01 (1.01–1.02) | CO[C@H]1C[C@@H]2CC[C@@H](C)[C@@](O)(O2)C(=O)C(=O)N2CCCC[C@H]2C(=O)O[C@H]([C@H](C)C[C@@H]2CC[C@@H](O)[C@H](OC)C2)CC(=O)[C@H](C)/C=C(\C)[C@@H](O)[C@@H](OC)C(=O)[C@H](C)C[C@H](C)/C=C/C=C/C=C/1C [SIR, sirolimus] | – | 9800 ± 1100 nM | markedly reduced | inhibit | negligible toxicity | did not inhibit | R (OATP1B1 [8]): 1.00 (1.00–1.01); R (OATP1B1 [8]; [19]): 1.01 (1.01–1.03); R (OATP1B1 [8]; from the previously published co-incubation IC50 (E1S, ref 24)): 1.00; toxicity (LDH assay) (HEK293-OATP1B3): negligible toxicity; time to steady state ([9]; multiple twice daily doses of 0.5–6.5 mg/m^2, stable renal transplant patients): 5 to 7 days
